The experiment concerns the target T1, HIV protease (Human immunodeficiency virus type 1 group M subtype B, UniProt P04585).
T1 construct: HIV protease is diluted in the assay buffer to a final enzyme concentration of 12.3 nanomolar, based on a molecular weight of 10,780
The experiment in a line: HIV protease enzyme assay (fluorescence, substrate 2-Ile-Nle-Phe(p-NO2)-Gln-ArgNH2). Format: biochemical. Conditions: for IC50: HIV protease enzyme assay. On the procedure:
The enzyme method is described below. […] The positive control is MVT-101 (Miller, M. et al, Science, 246, 1149 (1989)] The assay conditions are as follows:
Assay buffer: 20 mM sodium phosphate, pH 6.4 20% glycerol 1 mM EDTA 1 mM DTT 0.1% CHAPS
The above described substrate is dissolved in DMSO, then diluted 10 fold in assay buffer. Final substrate concentration in the assay is 80 μM.
The final concentration of DMSO is 14% and the final concentration of glycerol is 18%. The test compound is dissolved in DMSO and diluted in DMSO to 10× the test concentration; 10 μl of the enzyme preparation is added, the materials mixed and then the mixture is incubated at ambient temperature for 15 minutes. The enzyme reaction is initiated by the addition of 40 μl of substrate. The increase in fluorescence is monitored at 4 time points (0, 8, 16 and 24 minutes) at ambient temperature. Each assay is carried out in duplicate wells.

Setting [1] is: Table 19B, read-out: IC50 (uM) or % inhib: IC50.

Like-named read-outs stand apart in the source and are kept apart here.

For `Cc1cc(O)ccc1C(=O)N[C@@H](Cc1ccccc1)[C@H](O)CN(CC(C)C)S(=O)(=O)c1ccc2c(c1)OCO2` [Example 72], where the note is “Table 21, read-out: IC50”, the IC50 stood at 0.005 µM.

For `Cc1c(O)cccc1C(=O)N[C@@H](Cc1ccccc1)[C@H](O)CN(CC(C)C)S(=O)(=O)c1ccc2c(c1)OCO2` [Example 73], where the note is “Table 21, read-out: IC50”, the IC50 came to 0.004 µM.

With `COc1ccc(S(=O)(=O)N(CC(C)C)C[C@@H](O)[C@H](Cc2ccccc2)NC(=O)COc2c(C)cccc2C)cc1` [Example 74], for the setting “Table 21, read-out: IC50”, the IC50 is 0.003 µM.

For `COc1ccc(S(=O)(=O)N(CC(C)C)C[C@@H](O)[C@H](Cc2ccccc2)NC(=O)COc2ccccc2C)cc1` [Example 75], the IC50 (Table 21, read-out: IC50) was found to be 0.008 µM.

For the compound `COc1ccc(S(=O)(=O)N(CC(C)C)C[C@@H](O)[C@H](Cc2ccccc2)NC(=O)c2ccc3nc(N)sc3c2)cc1` [Example 76], the IC50 (Table 21, read-out: IC50) came to 0.005 µM.

Regarding `CC(C)CN(C[C@@H](O)[C@H](Cc1ccccc1)NC(=O)OCc1ccccc1)S(=O)(=O)c1ccc2nc(N)sc2c1` [Example 77], under “Table 21, read-out: IC50”, the IC50 was 0.002 µM.

`CC(C)CN(C[C@@H](O)[C@H](Cc1ccccc1)NC(=O)COc1ccccc1)S(=O)(=O)c1ccc2ncsc2c1` [Example 78]: the half-maximal inhibitory concentration (IC50) (Table 21, read-out: IC50) was 0.003 µM.

For `CCCS(=O)(=O)N(CCC(C)C)C[C@@H](O)[C@H](Cc1ccccc1)NC(=O)OCc1ccccc1` [Table 1a Entry 40], the IC50 under setting [1] was determined as 0.21 µM.

For the compound `CC(C)CCN(C[C@@H](O)[C@H](Cc1ccccc1)NC(=O)OCc1ccccc1)S(C)(=O)=O` [Table 1a Entry 41], under “Table 19B”, the “IC50 (uM) or % inhib: % inhib @ 1 uM” value was determined as 24% and the “IC50 (uM) or % inhib: % inhib @ 10 uM” value stood at 74%.

As for `CC(C)CCN(C[C@@H](O)[C@H](Cc1ccccc1)NC(=O)OCc1ccccc1)S(=O)(=O)C(F)(F)F` [Table 1a Entry 50], under “Table 19B”, the “IC50 (uM) or % inhib: % inhib @ 1 uM” value is given as 42% and the “IC50 (uM) or % inhib: % inhib @ 10 uM” value turned out to be 89%.

Take `CC(C)CN(C[C@@H](O)[C@H](Cc1ccccc1)NC(=O)OCc1ccccc1)S(C)(=O)=O` [Table 1a Entry 51]: for the setting “Table 19B”, the “IC50 (uM) or % inhib: % inhib @ 1 uM” value amounted to 31% and the “IC50 (uM) or % inhib: % inhib @ 10 uM” value is 76%.

For `CC(C)CCN(C[C@@H](O)[C@H](Cc1ccccc1)NC(=O)OCc1ccccc1)S(=O)(=O)CCl` [Table 1a Entry 52], for the setting “Table 19B”, the “IC50 (uM) or % inhib: % inhib @ 1 uM” value amounted to 39% and the “IC50 (uM) or % inhib: % inhib @ 10 uM” value was determined as 81%.

Regarding `CC(C)CN(C[C@@H](O)[C@H](Cc1ccccc1)NC(=O)OCc1ccccc1)S(=O)(=O)C=Cc1ccccc1` [Table 1a Entry 53], the IC50 under setting [1] amounted to 0.049 µM.

Consider `C=CS(=O)(=O)N(CC(C)C)C[C@@H](O)[C@H](Cc1ccccc1)NC(=O)OCc1ccccc1` [Table 1a Entry 55], for which the IC50 under setting [1] came out at 0.1 µM.

On to `CCC(C)CN(C[C@@H](O)[C@H](Cc1ccccc1)NC(=O)OCc1ccccc1)S(=O)(=O)c1ccc(OC)cc1` (some centres unmarked) [Table 1a Entry 56], for which the half-inhibitory concentration (IC50) under setting [1] was 0.0036 µM.

Regarding `CC(C)CCN(C[C@@H](O)[C@H](Cc1ccccc1)NC(=O)C(NC(=O)CN(C)C)C(C)(C)C)S(C)(=O)=O` (some centres unmarked) [Table 3 Entry 2], the “IC50 (uM) or % inhib: % inhib @ 1 uM” value (Table 19B) came out at 38%. The “IC50 (uM) or % inhib: % inhib @ 1.0 uM” value (Table 19B, @ 1.0 uM (second value of the cell)) stood at 90%.

For `CCC(C)C(NC(=O)OCc1ccccc1)C(=O)N[C@@H](Cc1ccccc1)[C@H](O)CN(CCC(C)C)S(=O)(=O)c1ccccc1` (some centres unmarked) [Table 3 Entry 4], under setting [1], the IC50 turned out to be 0.0024 µM.

`CC(C)CCN(C[C@@H](O)[C@H](Cc1ccccc1)NC(=O)[C@@H](NC(=O)OCc1ccccc1)C(C)C)S(=O)(=O)c1ccccc1` [Table 5 Entry 1]: the IC50 under setting [1] amounted to 0.0014 µM.

As for `CC(C)CCN(C[C@@H](O)[C@H](Cc1ccccc1)NC(=O)[C@H](CC(N)=O)NC(=O)OCc1ccccc1)S(=O)(=O)c1ccccc1` [Table 5 Entry 14], the IC50 under setting [1] is 0.0022 µM.

For `CC(C)CCN(C[C@@H](O)[C@H](Cc1ccccc1)NC(=O)[C@@H](NC(=O)OCc1ccccc1)C(C)(C)C)S(=O)(=O)c1ccccc1` [Table 5 Entry 22], the IC50 under setting [1] came to 0.0018 µM.

`C=CCOC(=O)N[C@@H](Cc1ccccc1)[C@H](O)CN(CC(C)C)S(=O)(=O)c1ccc(OC)cc1` [Table 5 Entry 33]: the IC50 under setting [1] was determined as 0.0044 µM.

In general, IC50 refers to the concentration that inhibits the measured activity by half.
